# Values joined by “and” are separate entries in the source; they are usually repeats but may differ in a detail not shown here. Equal entries are not always repeated. Where two headings read alike, the source gives them in different places.
# Columns and labels:
# [1] = test system: TNT Quick Coupled Transcription/Translation System (luciferase synthesis); type: biochemical
# [2] = test system: WI‐26 VA4 cells; experiment: Collagen ELISA (secreted pro‐collagen I)
# [3] = test system: WI‐26 VA4 cells; experiment: CellTiter‐Glo assay (cytotoxicity); conditions: Homo sapiens; for activity at 0.0001 µM: WI26VA4, read-out: CellTiter-Glo % of control, 0.1 nM; for activity at 0.0003 µM: WI26VA4, read-out: CellTiter-Glo % of control, 0.3 nM; for activity at 0.001 µM: WI26VA4, read-out: CellTiter-Glo % of control, 1 nM
# [4] = log(inhibitor) vs. response, variable slope (four parameters), concentration in nM
compound,measurement,setting,value
Cc1c(Br)cnc2c1ncn2CC(=O)C[C@H]1NCCC[C@@H]1O [DWN11761],TNT-luciferase % of control,"[1]; 6 nM, Experiment #1, replicates, 0.006 µM",103.28 % of control and 100.82 % of control and 110.66 % of control
same,TNT-luciferase % of control,"[1]; 6 nM, Experiment #2, replicates, 0.006 µM",86.60 % of control and 91.24 % of control and 93.56 % of control
same,TNT-luciferase % of control,"[1]; 6 nM, Experiment #3, replicates, 0.006 µM",100.46 % of control and 97.13 % of control and 93.79 % of control
same,"TNT-luciferase % of control, average",[1]; 6 nM,97.50 % of control
same,TNT-luciferase % of control,"[1]; 20 nM, Experiment #1, replicates, 0.02 µM",108.20 % of control and 109.84 % of control (2×)
same,TNT-luciferase % of control,"[1]; 20 nM, Experiment #2, replicates, 0.02 µM",85.82 % of control and 94.33 % of control and 98.20 % of control
same,TNT-luciferase % of control,"[1]; 20 nM, Experiment #3, replicates, 0.02 µM",98.25 % of control and 93.99 % of control and 91.88 % of control
same,"TNT-luciferase % of control, average",[1]; 20 nM,98.93 % of control
same,TNT-luciferase % of control,"[1]; 60 nM, Experiment #1, replicates, 0.06 µM",130.33 % of control and 132.79 % of control and 131.97 % of control
same,TNT-luciferase % of control,"[1]; 60 nM, Experiment #2, replicates, 0.06 µM",90.46 % of control and 98.97 % of control and 95.10 % of control
same,TNT-luciferase % of control,"[1]; 60 nM, Experiment #3, replicates, 0.06 µM",100.65 % of control and 91.36 % of control and 86.32 % of control
same,"TNT-luciferase % of control, average",[1]; 60 nM,106.44 % of control
same,TNT-luciferase % of control,"[1]; 200 nM, Experiment #1, replicates, 0.2 µM",106.56 % of control and 109.84 % of control and 110.66 % of control
same,TNT-luciferase % of control,"[1]; 200 nM, Experiment #2, replicates, 0.2 µM",68.51 % of control and 71.29 % of control and 70.98 % of control
same,TNT-luciferase % of control,"[1]; 200 nM, Experiment #3, replicates, 0.2 µM",96.73 % of control and 90.18 % of control and 101.79 % of control
same,"TNT-luciferase % of control, average",[1]; 200 nM,91.84 % of control
same,TNT-luciferase % of control,"[1]; 600 nM, Experiment #1, replicates, 0.6 µM",44.18 % of control and 45.33 % of control and 50.74 % of control
same,TNT-luciferase % of control,"[1]; 600 nM, Experiment #2, replicates, 0.6 µM",46.24 % of control and 47.63 % of control and 53.81 % of control
same,TNT-luciferase % of control,"[1]; 600 nM, Experiment #3, replicates, 0.6 µM",54.77 % of control and 51.07 % of control and 57.11 % of control
same,"TNT-luciferase % of control, average",[1]; 600 nM,50.10 % of control
same,TNT-luciferase % of control,"[1]; 2000 nM, Experiment #1, replicates, 2 µM",2.25 % of control and 2.32 % of control and 2.42 % of control
same,TNT-luciferase % of control,"[1]; 2000 nM, Experiment #2, replicates, 2 µM",3.17 % of control and 3.09 % of control and 3.97 % of control
same,TNT-luciferase % of control,"[1]; 2000 nM, Experiment #3, replicates, 2 µM",3.31 % of control and 3.19 % of control and 3.30 % of control
same,"TNT-luciferase % of control, average",[1]; 2000 nM,3.00 % of control
same,TNT-luciferase % of control,"[1]; 6000 nM, Experiment #1, replicates, 6 µM",0.05 % of control and 0.047 % of control and 0.06 % of control
same,TNT-luciferase % of control,"[1]; 6000 nM, Experiment #2, replicates, 6 µM",0.15 % of control and 0.14 % of control (2×)
same,TNT-luciferase % of control,"[1]; 6000 nM, Experiment #3, replicates, 6 µM",0.14 % of control (2×) and 0.12 % of control
same,"TNT-luciferase % of control, average",[1]; 6000 nM,0.11 % of control
same,TNT-luciferase % of control,"[1]; 20000 nM, Experiment #1, replicates, 20 µM",-0.0091 % of control and -0.014 % of control and -0.00199 % of control
same,TNT-luciferase % of control,"[1]; 20000 nM, Experiment #2, replicates, 20 µM",0.00206 % of control and -0.00211 % of control and -0.00412 % of control
same,TNT-luciferase % of control,"[1]; 20000 nM, Experiment #3, replicates, 20 µM",0.02 % of control and -0.0067 % of control and 0.00433 % of control
same,"TNT-luciferase % of control, average",[1]; 20000 nM,-0.00128 % of control
same,TNT-luciferase LogIC50 (best-fit value),[1]; [4],2.775
same,IC50,"[1]; log(inhibitor) vs. response, variable slope (four parameters), unit from head concentration (nM), read-out: TNT-luciferase IC50 (best-fit value)",595 nM
same,"Collagen, % of control (single replicates per experiment)","[2]; 1 nM, 0.001 µM",99.09 % of control and 89.14 % of control and 102.78 % of control and 94.15 % of control and 107.84 % of control
same,"Collagen, % of control (single replicates per experiment)","[2]; 3 nM, 0.003 µM",120.43 % of control and 98.90 % of control and 84.42 % of control and 95.43 % of control and 97.10 % of control and 104.96 % of control
same,"Collagen, % of control (single replicates per experiment)","[2]; 30 nM, 0.03 µM",79.96 % of control and 82.37 % of control
same,CC50/collagen IC50,[2]; Fig 5E,5.47
same,IC50,"[2]; Homo sapiens, WI26VA4, read-out: Collagen IC50 (best-fit value), log(inhibitor) vs. response, variable slope (four parameters) (converted)",53.7 nM
same,activity at 0.001 µM,"[2]; Homo sapiens, WI26VA4, read-out: Collagen, % of control (single replicates per experiment), 1 nM",109%
same,activity at 0.1 µM,"[2]; Homo sapiens, WI26VA4, read-out: Collagen, % of control (single replicates per experiment), 100 nM",20.2%
same,activity at 0.3 µM,"[2]; Homo sapiens, WI26VA4, read-out: Collagen, % of control (single replicates per experiment), 300 nM",3.63%
same,activity at 0.001 µM,"[2]; Homo sapiens, WI26VA4, read-out: Collagen, % of control, average, 1 nM, average",100%
same,activity at 0.003 µM,"[2]; Homo sapiens, WI26VA4, read-out: Collagen, % of control, average, 3 nM, average",100%
same,activity at 0.01 µM,"[2]; Homo sapiens, WI26VA4, read-out: Collagen, % of control, average, 10 nM, average",101%
same,activity at 0.03 µM,"[2]; Homo sapiens, WI26VA4, read-out: Collagen, % of control, average, 30 nM, average",80.4%
same,activity at 0.1 µM,"[2]; Homo sapiens, WI26VA4, read-out: Collagen, % of control, average, 100 nM, average",20.6%
same,activity at 0.3 µM,"[2]; Homo sapiens, WI26VA4, read-out: Collagen, % of control, average, 300 nM, average",3.18%
same,activity at 1 µM,"[2]; Homo sapiens, WI26VA4, read-out: Collagen, % of control, average, 1000 nM, average",1.53%
same,activity at 3 µM,"[2]; Homo sapiens, WI26VA4, read-out: Collagen, % of control, average, 3000 nM, average",1.46%
same,Collagen HillSlope (best-fit value),"[2]; log(inhibitor) vs. response, variable slope (four parameters)",-2.337
same,Collagen LogIC50 (best-fit value),[2]; [4],1.73
same,Relative (CC50)/(collagen IC50),"[2]; relative to HF, Fig 5E",1.63
same,activity at 0.0001 µM,"[3]; Experiment #1, replicates",101%
same,activity at 0.0001 µM,"[3]; Experiment #2, replicates",95.4%
same,activity at 0.0003 µM,"[3]; Experiment #1, replicates",110%
same,activity at 0.0003 µM,"[3]; Experiment #2, replicates",103%
same,activity at 0.001 µM,"[3]; Experiment #1, replicates",106%
same,activity at 0.001 µM,"[3]; Experiment #2, replicates",93.8%
same,activity at 0.003 µM,"[3]; WI26VA4, read-out: CellTiter-Glo % of control, 3 nM, Experiment #1, replicates",100%
